Results taken from ChEMBL document CHEMBL5465560, “Selectivity Literature for EUbOPEN Chemogenomic Library” (2024).
One block for each compound: values may come before it.

Key:
[1] = target: DNA (cytosine-5)-methyltransferase 1 (Homo sapiens) (UniProt P26358); test: Selectivity interaction (Methyltransferase screen (radiometric assays, panel of 8 PRMTs, 21 protein lysine methyltransferases, 3 DNA methyltransferases, and one RNA methyltransferase)) EUB0000272b DNMT1
[2] = target: T1, Ephrin type-B receptor 2 (Homo sapiens) (UniProt P29323); test: Selectivity interaction (KinomeScan (DiscoverX)) EUB0000666a EPHB2; conditions: at 10 µM
T1 sequence (whole entry): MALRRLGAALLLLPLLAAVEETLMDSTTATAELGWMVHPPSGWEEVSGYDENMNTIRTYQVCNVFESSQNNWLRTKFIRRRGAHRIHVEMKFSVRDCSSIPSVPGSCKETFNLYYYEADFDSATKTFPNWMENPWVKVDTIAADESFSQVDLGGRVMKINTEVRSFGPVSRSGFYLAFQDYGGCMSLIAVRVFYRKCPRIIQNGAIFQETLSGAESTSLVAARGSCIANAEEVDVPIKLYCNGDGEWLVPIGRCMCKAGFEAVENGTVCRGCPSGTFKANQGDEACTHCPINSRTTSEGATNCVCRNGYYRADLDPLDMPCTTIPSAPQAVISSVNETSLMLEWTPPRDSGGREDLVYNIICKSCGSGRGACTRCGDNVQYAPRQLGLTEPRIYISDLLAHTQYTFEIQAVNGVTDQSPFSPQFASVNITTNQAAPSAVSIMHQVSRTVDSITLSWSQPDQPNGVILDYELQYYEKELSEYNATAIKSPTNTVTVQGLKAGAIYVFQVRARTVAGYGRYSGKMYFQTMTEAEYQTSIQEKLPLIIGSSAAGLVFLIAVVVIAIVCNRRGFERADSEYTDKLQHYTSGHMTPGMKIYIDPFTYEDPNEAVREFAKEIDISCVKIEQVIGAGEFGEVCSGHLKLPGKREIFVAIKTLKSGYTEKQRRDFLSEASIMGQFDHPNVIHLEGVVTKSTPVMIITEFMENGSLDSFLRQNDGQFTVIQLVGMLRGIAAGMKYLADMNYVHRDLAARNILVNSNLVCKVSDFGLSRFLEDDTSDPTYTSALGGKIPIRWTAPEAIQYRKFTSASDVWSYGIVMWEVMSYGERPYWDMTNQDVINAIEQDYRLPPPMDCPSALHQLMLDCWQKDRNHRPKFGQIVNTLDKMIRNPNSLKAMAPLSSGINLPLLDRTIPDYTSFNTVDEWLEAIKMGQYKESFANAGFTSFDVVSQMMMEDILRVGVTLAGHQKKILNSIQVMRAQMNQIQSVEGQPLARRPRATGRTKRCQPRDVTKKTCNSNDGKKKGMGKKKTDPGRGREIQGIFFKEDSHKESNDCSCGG

[3] = target: Voltage-gated inwardly rectifying potassium channel KCNH2 (Homo sapiens, UniProt Q12809); test: Selectivity interaction (HERG dofetilide binding assay, human recombinant ) EUB0000877a KCNH2
Sequence of Voltage-gated inwardly rectifying potassium channel KCNH2 (Q12809 whole entry): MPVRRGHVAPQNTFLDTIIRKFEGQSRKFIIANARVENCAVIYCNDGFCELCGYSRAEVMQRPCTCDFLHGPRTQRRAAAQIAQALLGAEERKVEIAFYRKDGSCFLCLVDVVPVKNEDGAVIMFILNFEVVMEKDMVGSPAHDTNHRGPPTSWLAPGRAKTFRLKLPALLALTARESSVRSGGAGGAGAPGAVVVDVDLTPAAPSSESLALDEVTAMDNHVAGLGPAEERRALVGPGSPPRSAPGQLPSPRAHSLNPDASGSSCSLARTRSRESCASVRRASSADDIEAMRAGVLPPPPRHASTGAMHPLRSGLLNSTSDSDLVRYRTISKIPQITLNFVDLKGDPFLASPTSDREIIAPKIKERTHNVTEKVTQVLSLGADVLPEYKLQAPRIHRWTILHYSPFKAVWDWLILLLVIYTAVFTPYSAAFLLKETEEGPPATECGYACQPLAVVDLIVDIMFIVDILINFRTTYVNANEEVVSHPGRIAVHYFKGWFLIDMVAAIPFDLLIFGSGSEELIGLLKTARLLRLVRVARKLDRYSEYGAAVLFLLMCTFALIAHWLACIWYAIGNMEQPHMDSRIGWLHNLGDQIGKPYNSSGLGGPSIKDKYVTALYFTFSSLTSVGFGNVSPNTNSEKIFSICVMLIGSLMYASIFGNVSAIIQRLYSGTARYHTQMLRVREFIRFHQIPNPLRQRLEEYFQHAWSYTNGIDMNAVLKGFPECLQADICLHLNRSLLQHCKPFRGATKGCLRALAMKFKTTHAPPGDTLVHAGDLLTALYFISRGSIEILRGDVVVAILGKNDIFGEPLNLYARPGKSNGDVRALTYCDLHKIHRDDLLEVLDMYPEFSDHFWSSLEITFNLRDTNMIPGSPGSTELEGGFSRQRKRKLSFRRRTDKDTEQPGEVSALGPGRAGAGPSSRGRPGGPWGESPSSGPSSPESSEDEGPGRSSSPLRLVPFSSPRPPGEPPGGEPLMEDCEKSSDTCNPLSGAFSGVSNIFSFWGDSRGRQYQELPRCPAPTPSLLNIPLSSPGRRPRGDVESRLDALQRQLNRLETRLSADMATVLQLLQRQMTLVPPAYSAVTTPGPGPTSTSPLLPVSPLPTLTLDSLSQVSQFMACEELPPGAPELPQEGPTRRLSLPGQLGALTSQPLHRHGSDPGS

[4] = target: Mitogen-activated protein kinase 9 (Homo sapiens, UniProt P45984); test: Selectivity interaction (KinomeScan (DiscoverX)) EUB0000607a MAPK9; conditions: at 10 µM
Sequence of Mitogen-activated protein kinase 9 (P45984 whole entry, looked up): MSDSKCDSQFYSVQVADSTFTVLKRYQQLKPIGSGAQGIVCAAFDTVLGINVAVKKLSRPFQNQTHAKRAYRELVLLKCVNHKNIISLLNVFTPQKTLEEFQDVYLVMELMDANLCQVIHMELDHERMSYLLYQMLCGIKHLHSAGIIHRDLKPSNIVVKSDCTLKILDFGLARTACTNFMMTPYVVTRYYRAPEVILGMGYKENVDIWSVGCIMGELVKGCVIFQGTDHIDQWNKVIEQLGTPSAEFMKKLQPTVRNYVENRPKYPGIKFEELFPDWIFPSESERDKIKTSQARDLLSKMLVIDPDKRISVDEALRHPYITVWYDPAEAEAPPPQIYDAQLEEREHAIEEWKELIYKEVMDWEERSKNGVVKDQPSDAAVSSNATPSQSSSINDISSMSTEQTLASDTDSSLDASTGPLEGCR

[5] = target: Mitogen-activated protein kinase 14 (Homo sapiens, UniProt Q16539); test: Selectivity interaction (ActivX KiNativ screen (kinase selectivity in THP-1 cell lysates)) EUB0000639a MAPK14; assay type: subcellular; conditions: lysate, at 0.04 µM
Sequence of Mitogen-activated protein kinase 14 (Q16539 whole entry): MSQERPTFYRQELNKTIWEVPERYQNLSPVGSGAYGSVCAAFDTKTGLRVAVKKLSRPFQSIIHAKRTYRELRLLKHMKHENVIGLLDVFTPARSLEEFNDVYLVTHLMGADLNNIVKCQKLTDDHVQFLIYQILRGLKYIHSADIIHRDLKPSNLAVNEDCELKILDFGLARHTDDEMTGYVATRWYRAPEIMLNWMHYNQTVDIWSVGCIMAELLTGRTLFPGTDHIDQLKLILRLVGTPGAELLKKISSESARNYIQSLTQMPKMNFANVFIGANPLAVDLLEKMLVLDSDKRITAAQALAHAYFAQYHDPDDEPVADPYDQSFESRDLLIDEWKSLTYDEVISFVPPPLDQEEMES

[6] = target: Platelet-derived growth factor receptor alpha (Homo sapiens, UniProt P16234); test: Selectivity interaction (Kinase panel (Invitrogen)) EUB0000639a PDGFRA; conditions: at 200 nM
Sequence of Platelet-derived growth factor receptor alpha (P16234 whole entry): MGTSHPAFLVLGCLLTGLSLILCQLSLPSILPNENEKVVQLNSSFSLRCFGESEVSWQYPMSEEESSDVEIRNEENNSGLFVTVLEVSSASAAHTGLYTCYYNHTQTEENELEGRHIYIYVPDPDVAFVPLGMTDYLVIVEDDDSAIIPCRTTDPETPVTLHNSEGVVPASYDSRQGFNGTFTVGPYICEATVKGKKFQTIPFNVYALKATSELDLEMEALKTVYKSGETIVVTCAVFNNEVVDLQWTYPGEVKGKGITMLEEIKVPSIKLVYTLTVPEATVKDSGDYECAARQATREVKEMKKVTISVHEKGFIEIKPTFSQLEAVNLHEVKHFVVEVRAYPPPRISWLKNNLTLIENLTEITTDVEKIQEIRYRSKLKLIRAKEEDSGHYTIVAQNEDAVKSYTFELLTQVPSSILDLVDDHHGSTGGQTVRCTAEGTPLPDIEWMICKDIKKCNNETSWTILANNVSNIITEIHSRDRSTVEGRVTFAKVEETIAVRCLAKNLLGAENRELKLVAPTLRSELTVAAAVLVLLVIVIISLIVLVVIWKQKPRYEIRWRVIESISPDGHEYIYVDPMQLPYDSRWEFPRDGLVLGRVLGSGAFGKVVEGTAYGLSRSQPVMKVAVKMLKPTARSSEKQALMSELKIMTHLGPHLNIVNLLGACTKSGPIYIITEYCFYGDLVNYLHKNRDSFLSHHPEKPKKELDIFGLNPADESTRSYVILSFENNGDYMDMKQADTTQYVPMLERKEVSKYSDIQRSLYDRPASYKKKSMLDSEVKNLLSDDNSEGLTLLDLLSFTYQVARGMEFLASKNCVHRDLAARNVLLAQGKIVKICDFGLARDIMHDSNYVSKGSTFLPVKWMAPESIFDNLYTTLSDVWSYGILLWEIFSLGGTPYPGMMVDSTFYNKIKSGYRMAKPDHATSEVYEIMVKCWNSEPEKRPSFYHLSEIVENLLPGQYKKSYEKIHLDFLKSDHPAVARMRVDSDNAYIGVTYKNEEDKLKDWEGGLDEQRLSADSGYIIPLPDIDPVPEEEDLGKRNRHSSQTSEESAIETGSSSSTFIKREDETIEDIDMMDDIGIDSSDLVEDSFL

[7] = target: T2, Mitogen-activated protein kinase kinase kinase 13 (Homo sapiens) (UniProt O43283); test: Selectivity interaction (KinomeScan (DiscoverX)) EUB0001079a MAP3K13; conditions: at 1 µM
T2 sequence (whole entry): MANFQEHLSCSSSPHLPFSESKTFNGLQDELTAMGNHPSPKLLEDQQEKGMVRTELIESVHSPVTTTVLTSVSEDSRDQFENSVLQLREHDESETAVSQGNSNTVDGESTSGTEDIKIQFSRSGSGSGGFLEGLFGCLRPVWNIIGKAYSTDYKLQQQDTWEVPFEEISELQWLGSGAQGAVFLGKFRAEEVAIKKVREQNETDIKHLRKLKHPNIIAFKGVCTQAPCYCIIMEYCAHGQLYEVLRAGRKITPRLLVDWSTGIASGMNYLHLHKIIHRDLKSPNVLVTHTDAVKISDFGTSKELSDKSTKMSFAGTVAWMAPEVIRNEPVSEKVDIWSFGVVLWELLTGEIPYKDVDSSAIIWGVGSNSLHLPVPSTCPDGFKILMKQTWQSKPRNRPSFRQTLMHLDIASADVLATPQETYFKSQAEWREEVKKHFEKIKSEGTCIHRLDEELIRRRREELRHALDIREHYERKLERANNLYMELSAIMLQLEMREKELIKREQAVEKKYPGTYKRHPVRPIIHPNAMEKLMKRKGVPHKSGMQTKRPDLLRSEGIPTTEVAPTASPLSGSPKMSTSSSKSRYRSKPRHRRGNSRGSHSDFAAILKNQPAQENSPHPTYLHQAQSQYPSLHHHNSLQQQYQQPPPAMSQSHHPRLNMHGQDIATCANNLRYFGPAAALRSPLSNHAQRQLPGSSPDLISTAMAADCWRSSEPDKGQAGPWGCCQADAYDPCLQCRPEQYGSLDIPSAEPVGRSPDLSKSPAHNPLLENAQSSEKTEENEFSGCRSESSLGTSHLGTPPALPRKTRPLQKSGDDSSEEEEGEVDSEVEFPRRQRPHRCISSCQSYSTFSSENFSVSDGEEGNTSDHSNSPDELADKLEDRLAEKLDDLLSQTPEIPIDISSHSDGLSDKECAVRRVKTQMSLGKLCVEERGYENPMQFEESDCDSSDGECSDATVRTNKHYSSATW

[8] = target: T3, Histone-lysine N-methyltransferase SETD7 (Homo sapiens) (UniProt Q8WTS6); conditions: at 10 µM
T3 sequence (whole entry): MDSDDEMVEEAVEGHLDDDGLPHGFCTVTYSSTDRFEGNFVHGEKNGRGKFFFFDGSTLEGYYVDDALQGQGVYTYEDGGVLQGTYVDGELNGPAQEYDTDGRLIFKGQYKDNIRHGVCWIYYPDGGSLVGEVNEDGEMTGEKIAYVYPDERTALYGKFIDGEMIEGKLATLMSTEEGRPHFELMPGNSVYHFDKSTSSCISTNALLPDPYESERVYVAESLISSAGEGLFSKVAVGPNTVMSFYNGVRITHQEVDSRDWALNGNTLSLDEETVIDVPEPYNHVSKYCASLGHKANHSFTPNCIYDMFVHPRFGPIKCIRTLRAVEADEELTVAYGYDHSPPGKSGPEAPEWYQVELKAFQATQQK

Sequence of DNA (cytosine-5)-methyltransferase 1 (Homo sapiens) (P26358 whole entry): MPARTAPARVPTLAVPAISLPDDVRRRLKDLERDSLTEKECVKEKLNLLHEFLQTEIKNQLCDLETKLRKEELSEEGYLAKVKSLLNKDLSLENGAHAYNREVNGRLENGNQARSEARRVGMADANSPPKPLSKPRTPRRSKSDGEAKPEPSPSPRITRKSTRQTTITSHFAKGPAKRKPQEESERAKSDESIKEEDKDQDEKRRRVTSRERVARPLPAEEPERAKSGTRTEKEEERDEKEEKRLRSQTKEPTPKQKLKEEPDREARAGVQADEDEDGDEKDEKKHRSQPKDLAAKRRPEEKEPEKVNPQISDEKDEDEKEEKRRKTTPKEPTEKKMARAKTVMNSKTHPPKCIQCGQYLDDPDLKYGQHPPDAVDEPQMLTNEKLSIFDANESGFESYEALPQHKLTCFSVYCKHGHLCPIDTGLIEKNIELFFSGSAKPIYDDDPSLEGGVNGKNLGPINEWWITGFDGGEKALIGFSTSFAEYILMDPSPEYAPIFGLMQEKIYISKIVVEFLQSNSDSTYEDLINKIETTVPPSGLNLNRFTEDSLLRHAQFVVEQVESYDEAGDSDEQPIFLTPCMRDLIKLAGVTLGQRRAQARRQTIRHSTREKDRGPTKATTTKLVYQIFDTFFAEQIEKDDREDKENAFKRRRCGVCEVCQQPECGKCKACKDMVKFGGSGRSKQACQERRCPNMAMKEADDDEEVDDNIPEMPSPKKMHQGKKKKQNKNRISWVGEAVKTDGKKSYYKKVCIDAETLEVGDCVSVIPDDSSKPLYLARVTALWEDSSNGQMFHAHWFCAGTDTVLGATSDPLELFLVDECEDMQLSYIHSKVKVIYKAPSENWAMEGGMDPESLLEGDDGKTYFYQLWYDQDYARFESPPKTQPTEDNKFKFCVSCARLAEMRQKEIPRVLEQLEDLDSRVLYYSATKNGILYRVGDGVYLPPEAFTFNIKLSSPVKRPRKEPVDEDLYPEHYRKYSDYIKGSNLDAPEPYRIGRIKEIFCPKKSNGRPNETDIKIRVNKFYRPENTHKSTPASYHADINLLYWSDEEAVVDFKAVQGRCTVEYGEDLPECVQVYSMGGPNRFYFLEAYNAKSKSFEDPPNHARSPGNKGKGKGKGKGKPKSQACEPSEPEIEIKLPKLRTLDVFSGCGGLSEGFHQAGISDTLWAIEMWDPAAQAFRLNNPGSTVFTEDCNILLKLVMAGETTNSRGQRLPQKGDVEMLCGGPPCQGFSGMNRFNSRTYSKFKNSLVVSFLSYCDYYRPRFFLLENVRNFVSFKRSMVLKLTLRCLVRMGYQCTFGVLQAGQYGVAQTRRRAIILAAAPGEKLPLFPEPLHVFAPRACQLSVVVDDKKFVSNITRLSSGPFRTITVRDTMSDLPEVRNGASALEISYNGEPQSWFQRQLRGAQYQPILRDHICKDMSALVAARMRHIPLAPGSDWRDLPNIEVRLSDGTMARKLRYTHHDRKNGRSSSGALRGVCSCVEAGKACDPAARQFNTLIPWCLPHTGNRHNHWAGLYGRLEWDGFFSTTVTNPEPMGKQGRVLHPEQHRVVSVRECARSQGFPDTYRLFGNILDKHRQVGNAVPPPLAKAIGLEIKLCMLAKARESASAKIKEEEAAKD

% of activity ([1]; at 1 µM): 98.7%
% of activity ([1]; at 10 µM): 104%
Structure (SMILES): Cc1cc(C)cc([C@H]2c3cc(C)ccc3NC(=O)CN2C(=O)c2ccc(Br)s2)c1

Structure (SMILES): O=C(NOC[C@H](O)CO)c1ccc(F)c(F)c1Nc1ccc(I)cc1F
% of control [2]: 73%

Structure (SMILES): CCC(=O)N1CC[C@H](Nc2ncnc3c2CN(c2cnc(OC)c(C(F)(F)F)c2)CC3)C1 [LENIOLISIB]
IC50 [3]: > 30 µM

Structure (SMILES): CNC(=O)Nc1ccc(-c2nc(N3CC4CCC(C3)O4)c3cnn(C4CCC5(CC4)OCCO5)c3n2)cc1
% of control [4]: 85%

% of inhibition [5]: 5.4%
% of inhibition [6]: 9.99%
Structure (SMILES): CC[C@@H]1[C@H](F)C(=O)N[C@@H]1COc1nccc2cc(C(N)=O)c(OC)cc12 [ZIMLOVISERTIB]

Structure (SMILES): Nc1cnc(N2CCc3cc(S(=O)(=O)Nc4c(F)cc(Cl)cc4F)cc(N4CCCC4=O)c32)nc1 [TP-020n]
% of control [7]: 100%

% activity [8]: > 90%
Structure (SMILES): CNCCN1CCC(c2cc(CN(C)C(=O)c3cccc(Oc4ccccc4)c3)ccn2)CC1
